Measured values published in article PMC10916402, “Meropenem-ANT3310, a unique β-lactam-β-lactamase inhibitor combination with expanded antibacterial spectrum against Gram-negative pathogens including carbapenem-resistant Acinetobacter baumannii” (Antimicrobial Agents and Chemotherapy, 2024).

How the values were obtained:
OXA-51 = OXA-51 (Acinetobacter baumannii, UniProt Q5QT35); assay: In vitro SBL inhibition assay (nitrocefin hydrolysis), IC50; type: biochemical, A. baumannii; details: 10 min preincubation, 30°C, read-out: Enzyme IC50
Description: (§1) Nitrocefin (Sigma-Aldrich, St Louis, MO, USA), a chromogenic cephalosporin antibiotic (λ, 482 nm; εM, 15,000 M^−1.cm^−1), was used as a reporter substrate at 100 µM for KPC-2, OXA-23, and OXA-48, at 200 µM for OXA-24 and OXA-51, and at 50 µM for OXA-58. Enzymes were preincubated in the presence of varying concentrations of each compound (0.006 to 3000 nM, diluted twofold in dimethyl sulfoxide (DMSO) for KPC-2, OXA-23, and OXA-48 assays and 0.51 to 10,000 nM diluted threefold in DMSO for OXA-24, OXA-51, and OXA-58) for 10 min at 30°C. Nitrocefin was then added and its hydrolysis by the uninhibited enzyme fraction was followed at an absorbance wavelength of 482 nm for 10 min at 30°C using Envision UV fluorescence plate reader (Perkin Elmer, Waltham, MA, USA). Hydrolysis rate data were used to determine inhibitory activities, expressed in IC50 values [corresponding to the compound concentration (µM) required to inhibit 50% of enzymatic reaction].

OXA-58 = OXA-58 (Acinetobacter baumannii, UniProt Q2TR58); assay: as above; type: biochemical, A. baumannii
Description: as §1

OXA-51, sequence (Q5QT35 entry or part of it): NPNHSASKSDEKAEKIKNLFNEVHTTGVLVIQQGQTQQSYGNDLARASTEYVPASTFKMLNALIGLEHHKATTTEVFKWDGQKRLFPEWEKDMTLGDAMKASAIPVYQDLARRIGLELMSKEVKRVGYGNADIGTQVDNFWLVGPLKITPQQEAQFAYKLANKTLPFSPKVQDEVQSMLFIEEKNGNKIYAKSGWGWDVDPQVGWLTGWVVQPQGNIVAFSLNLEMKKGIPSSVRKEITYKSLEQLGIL
OXA-58, sequence (Q2TR58 19-280): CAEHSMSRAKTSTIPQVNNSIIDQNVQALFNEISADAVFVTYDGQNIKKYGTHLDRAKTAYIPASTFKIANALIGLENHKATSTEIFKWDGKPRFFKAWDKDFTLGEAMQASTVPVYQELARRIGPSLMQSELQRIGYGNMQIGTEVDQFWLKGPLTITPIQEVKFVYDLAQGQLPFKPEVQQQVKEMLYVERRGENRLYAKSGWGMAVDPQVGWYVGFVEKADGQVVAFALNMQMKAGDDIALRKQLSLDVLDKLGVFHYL

Structure (SMILES): NC(=O)[C@@H]1CC[C@@H]2CN1C(=O)N2OS(=O)(=O)O [Avi, avibactam]
- IC50 (OXA-51): > 10 µM
- IC50 (OXA-58): > 10 µM
